# Measurements: paper PMC9214036, “Design and Synthesis of Novel PRMT1 Inhibitors and Investigation of Their Effects on the Migration of Cancer Cell” (Frontiers in Chemistry, 2022)
# Counter-ions that a name gives are not always drawn.
# What was measured:
# A549 cells [1] = assay: Western blot of TGF-β1-induced mesenchymal markers (EMT) in A549 cells; format: cell-based, human; details: TGF-β1 48 h, WCJ-394 pretreatment 5, 10, 20 μM
# Method: (§1) A549 cells in the logarithmic growth phase were seeded into a 6-well cell culture plate at a density of 3 × 10^5 cells per well.
# (§2) A549 cells were lysed in RIPA buffer, which contains protease and phosphatase inhibitors, and then harvested in Eppendorf tubes for centrifugation (14,000 rpm for 10 min at 4°C) to remove cell debris. The supernatants were transferred into new Eppendorf tubes, and the protein concentration was quantified with a BCA kit (Thermo Fisher). The protein samples were separated by 10% SDS-PAGE and transferred onto polyvinylidene difluoride (PVDF) membranes. The membranes were blocked for 1 h at room temperature in 5% BSA and then incubated with the corresponding primary antibodies overnight at 4°C and then incubated with secondary antibodies for another 1 h at room temperature. After being washed with TBST buffer three times, the PVDF membranes were visualized with ECL reagents (Millipore) and the Western blot results were further analyzed by ImageJ software (National Institutes of Health).
# PRMT3 = PRMT3 (Homo sapiens, UniProt O60678); assay: AlphaLISA selectivity assay, PRMT3; format: biochemical; details: read-out: IC50 against PRMT3
# Method: (§3) […]. […] Next, 5 μl of enzyme solution was transferred to the assay plate and incubated at room temperature for 15 min. Then, 5 μl of substrate solution was added to each well to start the reaction. After incubation at room temperature for 30 min (PRMT4,6) and 60 min (PRMT3,8), 15 μl of acceptor and donor bead mix solution were added to the assay plate and incubated at room temperature for 60 min with subdued light. The signal was collected with Envision or EnSpire with Alpha mode. The data were analyzed in GraphPad Prism 5 to obtain IC50 values.
# PRMT4 = biological target: T1, PRMT4 (Homo sapiens, UniProt Q86X55); assay: AlphaLISA selectivity assay, PRMT4; format: biochemical; details: read-out: IC50 against PRMT4
# T1 sequence (Q86X55 1-608): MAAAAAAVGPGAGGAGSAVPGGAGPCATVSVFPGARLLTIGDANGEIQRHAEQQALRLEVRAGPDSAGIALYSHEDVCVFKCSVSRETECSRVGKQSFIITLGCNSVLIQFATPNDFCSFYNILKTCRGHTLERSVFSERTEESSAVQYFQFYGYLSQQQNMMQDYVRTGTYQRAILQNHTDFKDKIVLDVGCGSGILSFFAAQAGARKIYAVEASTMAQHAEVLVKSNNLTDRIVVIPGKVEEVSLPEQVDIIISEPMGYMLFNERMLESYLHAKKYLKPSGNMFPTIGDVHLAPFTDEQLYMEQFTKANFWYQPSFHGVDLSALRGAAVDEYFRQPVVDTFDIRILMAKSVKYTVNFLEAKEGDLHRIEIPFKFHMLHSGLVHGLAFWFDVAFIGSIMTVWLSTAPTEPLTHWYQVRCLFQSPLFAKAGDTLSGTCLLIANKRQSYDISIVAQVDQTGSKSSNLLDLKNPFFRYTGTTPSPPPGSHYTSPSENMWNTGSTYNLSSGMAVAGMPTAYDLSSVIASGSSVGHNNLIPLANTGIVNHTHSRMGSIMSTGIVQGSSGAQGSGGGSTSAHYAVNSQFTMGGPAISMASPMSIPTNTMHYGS
# Method: as §3
# PRMT8 = PRMT8 (Homo sapiens, UniProt Q9NR22); assay: AlphaLISA selectivity assay, PRMT8; format: biochemical; details: read-out: IC50 against PRMT8
# Method: as §3
# MLEC = MLEC cell viability (CCK-8) under the luciferase assay condition; format: cell-based, mink; details: concentration up to 100 μM, same condition as luciferase assay
# Method: (§4) Cells were seeded into a 96-well plate; after 12 h of attachment, the cells were treated with different concentrations (0–1,600 μΜ) of WCJ-394 for 48 h. Cell viability was assessed by a Cell Counting Kit-8 (CCK-8; MCE) according to the manufacturer’s instructions. Briefly, after treatment, the CCK-8 solution was added to the culture medium and incubated at 37°C for 1 h. Cell viability was assessed by measuring the absorbance at 450 nm. In the subsequent luciferase assays, the effects of WCJ-394 on the cell viability were examined in parallel to exclude the compound-induced cell death.
# The luciferase activity was measured in a luminometer.
# PRMT1 = PRMT1 (Homo sapiens, UniProt Q99873); assay: Radioactive PRMT1 methylation inhibition assay ([3H]-SAM, biotinylated histone H4 peptide); format: biochemical
# Method: A series of 2,5-substituted furan and 2,4-substituted thiazole derivatives were synthesized and screened for their inhibitory effects on PRMT1 by using the radioactive PRMT1 methylation inhibition assay, which measured the amount of methyl groups that transferred from [^3H]-SAM to a biotinylated histone H4 peptide [ac-[…](Biotin)] (Tables 1–3).
# The enzyme inhibitory activities and selectivity were measured by the radioisotope assay and AlphaLISA assay in ShangHai Chempartner Co., Ltd., according to the standard protocol. […] After 250 nL of compound solutions were added to the assay plate, 15 μl of PRMT1 enzyme solution or ×1 assay buffer for negative control was transferred to each well of prepared compound stock plates and the whole system (the final concentration of PRMT1 was 0.5 nM or 2 nM in the system) was incubated for 15 min at room temperature. […] Afterward, the reaction was stopped with the addition of 5 μl cold SAM solution to each well. Then, 25 μl volume per well was transferred to a Flashplate from the assay plate and incubated for a minimum of 1 h at room temperature. Finally, the Flashplate was washed with dH2O and 0.1% Tween-20 three times and then the reading plate in Microbeta using the program ^3H-Flashplate. The data were analyzed in GraphPad Prism 5 to obtain IC50 values.
# A549 cells [2] = assay: Scratch wound healing assay, TGF-β1-induced A549 cell migration; format: cell-based, human
# Method: In the scratch wound healing assay, the percentages of scratch widths at 24 and 48 h compared to that of 0 h were used to denote the rate of A549 cell migration. As shown in Figures 6A–C, the TGF-β1 treatment promoted the scratched wound closure.
# The monolayer cell was scratched with a new 10 μl pipette tip across the center of the well, and the detached cells were gently rinsed with PBS buffer. […] The scratch was photographed through a microscope at ×100 magnification at 0, 24, and 48 h. Then, the scratch width was quantified by ImageJ software and the rate of wound closure was calculated with the final values expressed as a migration percentage of the scratch width relative to 0 h.
# A549 cells [3] = assay: Transwell migration assay, TGF-β1-induced A549 cell migration; format: cell-based, human; details: TGF-β1, WCJ-394 pretreatment 5, 10, 20 μM
# Method: A549 cells in the logarithmic growth phase were resuspended with a serum-free DMEM medium and seeded into the 8-μm transwell filter inserts at a density of 8 × 10^3 cells per well; meanwhile, 600 μl medium containing 10% FBS was added into the lower chambers of the 24-well cell culture plate. […] After incubation, the cells in the upper chambers were carefully removed with a cotton swab, while the cells that had traversed to the bottom side of the membrane were fixed with 4% paraformaldehyde for 15 min and stained with 0.1% crystal violet for 20 min. The chambers were washed with PBS buffer to remove extra crystal violet. Three fields of view were randomly taken and photographed from the central and surrounding parts of each membrane under a microscope at ×100 magnification, and cell number was calculated by ImageJ software.
# PRMT6 = PRMT6 (Homo sapiens, UniProt Q96LA8); assay: AlphaLISA selectivity assay, PRMT6; format: biochemical; details: read-out: IC50 against PRMT6
# Method: as §3
# A549 cells [4] = assay: CCK-8 cell viability assay in A549 cells; format: cell-based, human; details: concentrations of 0–50 μM
# Method: (§5) To determine the effects of WCJ-394 on the inhibition of TGF-β1-induced epithelial–mesenchymal transition (EMT) in A549 cells, the characterized proteins were detected using the Western blotting assay.
# as §4
# [5] = CCK-8 cell viability assay in A549 cells; format: cell-based, human; details: human, A549 cells treated for 48 h, read-out: IC50 (CC50), A549 cell viability
# Method: as §5, §4
# A549 cells [6] = assay: Western blot of PRMT-related proteins (SDMA, ADMA, DDAH, PRMT1) in A549 cells; format: cell-based, human; details: WCJ-394 5, 10, 20 μM, 48 h
# Method: as §1, §2
# TGF-β signaling = assay: cells; details: 18 h, read-out: IC50, inhibition of TGF-β signaling
# Method: The medium was changed into DMEM with 0.1% FBS. […] The final concentration of DMSO should be maintained at 0.1%. After incubation, the medium was removed and the cells were rinsed with PBS to remove any residual compound. One hundred microliters of the Steady-Glo® Luciferase Assay reagent (Promega) was added to each well, and the cells were lysed in the dark for 10 min on a horizontal shaker. The luciferase activity was measured in a luminometer.
# PRMT1, sequence (Q99873 whole entry): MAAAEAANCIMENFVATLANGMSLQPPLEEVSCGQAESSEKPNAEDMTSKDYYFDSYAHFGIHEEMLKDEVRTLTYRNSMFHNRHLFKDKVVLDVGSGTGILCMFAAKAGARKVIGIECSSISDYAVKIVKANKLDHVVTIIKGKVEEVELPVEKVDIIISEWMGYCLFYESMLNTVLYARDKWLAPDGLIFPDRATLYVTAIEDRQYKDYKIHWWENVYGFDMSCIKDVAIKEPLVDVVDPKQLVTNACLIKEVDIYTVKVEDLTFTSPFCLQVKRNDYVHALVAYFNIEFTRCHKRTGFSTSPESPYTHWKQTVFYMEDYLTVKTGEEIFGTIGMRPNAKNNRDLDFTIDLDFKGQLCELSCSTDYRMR
# PRMT8, sequence (Q9NR22 whole entry): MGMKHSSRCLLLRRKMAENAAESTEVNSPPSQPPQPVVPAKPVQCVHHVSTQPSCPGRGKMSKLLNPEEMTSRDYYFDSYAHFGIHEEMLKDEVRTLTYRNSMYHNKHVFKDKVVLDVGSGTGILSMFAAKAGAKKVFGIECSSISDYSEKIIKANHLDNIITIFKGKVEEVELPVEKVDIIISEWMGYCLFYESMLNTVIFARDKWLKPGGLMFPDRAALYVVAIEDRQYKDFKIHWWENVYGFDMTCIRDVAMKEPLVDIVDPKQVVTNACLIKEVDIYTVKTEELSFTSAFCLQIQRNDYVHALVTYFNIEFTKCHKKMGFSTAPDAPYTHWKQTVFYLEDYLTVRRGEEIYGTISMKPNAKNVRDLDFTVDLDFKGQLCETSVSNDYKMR
# PRMT3, sequence (O60678 whole entry): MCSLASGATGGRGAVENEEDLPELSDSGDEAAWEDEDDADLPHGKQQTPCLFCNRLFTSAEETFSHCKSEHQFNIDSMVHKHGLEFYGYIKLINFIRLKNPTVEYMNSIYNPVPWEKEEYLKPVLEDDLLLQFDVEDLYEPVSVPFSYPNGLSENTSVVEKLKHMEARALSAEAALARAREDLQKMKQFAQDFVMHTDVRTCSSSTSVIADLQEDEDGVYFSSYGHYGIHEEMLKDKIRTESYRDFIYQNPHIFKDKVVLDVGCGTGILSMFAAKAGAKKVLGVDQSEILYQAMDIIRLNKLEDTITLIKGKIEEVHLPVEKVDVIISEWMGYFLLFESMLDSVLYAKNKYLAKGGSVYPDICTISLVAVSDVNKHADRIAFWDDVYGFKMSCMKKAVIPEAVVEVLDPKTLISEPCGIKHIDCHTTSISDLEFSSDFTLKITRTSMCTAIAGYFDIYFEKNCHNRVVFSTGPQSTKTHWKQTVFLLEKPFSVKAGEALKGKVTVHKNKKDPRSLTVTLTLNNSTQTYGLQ
# PRMT6, sequence (Q96LA8 whole entry): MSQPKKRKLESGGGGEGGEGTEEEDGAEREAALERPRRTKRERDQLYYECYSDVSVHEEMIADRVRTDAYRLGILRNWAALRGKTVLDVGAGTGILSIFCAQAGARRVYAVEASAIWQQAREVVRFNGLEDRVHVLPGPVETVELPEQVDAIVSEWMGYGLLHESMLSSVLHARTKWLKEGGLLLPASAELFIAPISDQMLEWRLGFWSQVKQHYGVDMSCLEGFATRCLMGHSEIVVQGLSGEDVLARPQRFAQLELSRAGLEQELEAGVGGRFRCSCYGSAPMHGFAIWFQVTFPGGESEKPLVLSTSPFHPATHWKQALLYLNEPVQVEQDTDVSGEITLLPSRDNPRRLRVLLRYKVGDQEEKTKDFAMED
smiles,measurement,setting,value
"CN(CCN)Cc1csc(-c2ccc(C(=N)N)nc2)n1 [Compound 1r, N′-[2-(2-Aminocarboximido-5-pyridyl)thiazol-4-yl-methyl]-N′-methylethylenediamine Hydrochloride]","expression of EMT-related proteins (fibronectin, N-cadherin, MMP-2, α-SMA)",A549 cells [1],decreased (p < 0.05) by the pretreatment of WCJ-394 in a concentration-dependent manner
same,IC50,PRMT3,57.6 ± 0.62 µM
same,IC50,PRMT4,1.64 ± 0.17 µM
same,IC50,PRMT8,5.71 ± 0.05 µM
same,cytotoxicity in MLEC (cell viability),MLEC,without showing significant cytotoxicity
same,PRMT1 IC50 compared with SAH,PRMT1; fold weaker than SAH,about two times weaker than SAH
same,IC50,"PRMT1; radioactive methylation assay, read-out: IC50 (μM) against PRMT1",1.21 ± 0.11 µM
same,inhibition at 10 µM,PRMT1; read-out: % Inhibition of PRMT1 (at 10 μM),98.5 ± 0.04%
same,TGF-β1-induced cell migration (scratched wound closure) at 24 h,"A549 cells [2]; WCJ-394 pretreatment at 10 or 20 μM, 24 h",significantly inhibited
same,TGF-β1-induced cell migration (scratched wound closure) at 48 h,"A549 cells [2]; WCJ-394 pretreatment, 48 h",retardation effect of WCJ-394 on cell migration was further detected
same,number of migrated cells (transwell),A549 cells [3],significantly decreased the number of migrated cells in a concentration-dependent manner
same,IC50,PRMT6,29.7 ± 2.03 µM
same,cytotoxicity in A549 cells,A549 cells [4],did not result in any cytotoxicity
same,IC50 at 48 h,[5],584 µM
same,expression level of ADMA,A549 cells [6],significantly reduced in a concentration-dependent manner
same,expression of DDAH,A549 cells [6],significantly decreased in a concentration-dependent manner
same,expression of PRMT1,A549 cells [6],not significantly affected
same,expression of SDMA,A549 cells [6],not affected
same,IC50,TGF-β signaling,17.7 µM
